Like-named read-outs stand apart in the source and are kept apart here. Starred links: 1 amine or outer side, 2 acyl side, 3 side chain; linkers in the order of their positions; H or OH if unused. Positions of bridges follow the written chain, without caps; N, C: chain ends. Non-standard residues stand in square brackets, D forms with d. Residues, ends and D or L forms follow the SMILES beside them. *: point of attachment. NH(CH2)3NHDOTA = O=C(O)CN1CCN(CC(=O)O)CCN(CC(=O)NCCCN*)CCN(CC(=O)O)CC1; NH(1-deoxy-D-glucityl) = OC[C@@H](O)[C@@H](O)[C@H](O)[C@@H](O)CN*; X21 = NS(=O)(=O)CCC(=O)Nc1cccc(C[C@H](N[*:1])C(=O)[*:2])c1; DOTA = O=C(O)CN1CCN(CC(=O)O)CCN(CC(=O)*)CCN(CC(=O)O)CC1; Phe(3-CF3) = N[C@@H](Cc1cccc(C(F)(F)F)c1)C(=O)O; Propanoyl(3-SO2NH2) = NS(=O)(=O)CCC(=O)*; Phe(4-NH2) = Nc1ccc(C[C@H](N)C(=O)O)cc1; mXylylene = c1cc(C[*:1])cc(C[*:2])c1; Trx = NC[C@H]1CC[C@H](C(=O)O)CC1; X2 = O=C(CN1CCC(N[*:1])CC1)[*:2]; X1 = O=C(CN1CCN([*:1])CC1)[*:2]; X17 = NS(=O)(=O)c1cc(C(=O)*)cs1; X27 = NS(=O)(=O)c1ccc(C(=O)*)s1; X31 = NS(=O)(=O)c1coc(C(=O)*)c1; X41 = NS(=O)(=O)c1cccc(N*)c1; Dap = NC[C@H](N)C(=O)O
Columns and labels:
[1] = target: T1, human carbonic anhydrase IX (hCAIX-Fc) (Homo sapiens, UniProt Q16790); assay: Surface plasmon resonance assay with hCAIX-Fc; format: binding; conditions: 25° C.; for t1/2 category (activity): SPR dissociation half-life, hCAIX-Fc; for Kd: SPR, hCAIX-Fc captured, read-out: pKD category (activity) (converted)
T1 construct: purchased SinoBliological (Sino Biological) 10107-H02H

[2] = target: T2, CAIX-expressing human HT-29 colorectal cancer cells (Homo sapiens, UniProt Q16790); assay: FACS binding assay (IC50 determination, competition with tracer 3BP-2776 or 3BP-4149); conditions: 4° C., 1 hour, read-out: pIC50 category (activity) (converted)
T2 construct: CAIX-expressing human HT-29 colorectal cancer cells; host or cells: HT-29 human colorectal cancer cells
How it was run: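 HT-29 cells in FACS buffer (PBS, 1% FCS) at 500.000 cells/ml were exposed to compounds competing with a labelled tracer, with biotinylated compounds detected by 1 μg/mL APC-streptavidin for 30 min on ice. APC/Cy5 median fluorescence was read by flow cytometry and IC50 derived by 4PL fit.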

[3] = FACS binding assay, HT-29 cells, competition with tracer 3BP-4149 (3 nM, Cy5-labeled)
[4] = FACS competition on HT-29 cells, Tracer ID 3BP-2776 (10 nM, biotin-labeled)
[5] = FACS binding assay, HT-29 cells, competition with tracer 3BP-2776 (10 nM, biotin-labeled)

| SMILES | t1/2 category (activity) [1] | Kd [1] [nM] | IC50 [2, 3] [nM] | IC50 [2, 4] [nM] | IC50 [2, 5] [nM] |
| --- | --- | --- | --- | --- | --- |
| CC(C)C[C@@H]1NC(=O)[C@H](Cc2ccc(NC(=O)CCS(N)(=O)=O)cc2)NC(=O)[C@H](CC(=O)O)NC(=O)[C@H]2CCCN2C(=O)[C@H](CCC(=O)O)NC(=O)[C@@H](NC(=O)[C@H](Cc2ccc(O)cc2)NC(=O)[C@@H](NC(=O)CN2CCC(NC(=O)CN3CCN(CC(=O)O)CCN(CC(=O)O)CCN(CC(=O)O)CC3)CC2)C(C)C)CSCc2cccc(c2)CSC[C@@H](C(N)=O)NC(=O)[C@H](CO)NC(=O)[C@H](Cc2c[nH]c3ccccc23)NC(=O)[C@H]([C@@H](C)O)NC1=O [3BP-4400] ({DOTA}-[X2]VYCE[dP]D[Phe(4-NH2)](Propanoyl(3-SO2NH2))LTWSC-NH2; linker 4-13 via mXylylene) | A (t1/2>15.0 minutes) | < 10 | < 10 |  |  |
| CC(C)C[C@@H]1NC(=O)[C@H](Cc2c[nH]c3ccccc23)NC(=O)[C@H](CC(=O)O)NC(=O)[C@H]2CCCN2C(=O)[C@H](CCC(=O)O)NC(=O)[C@@H](NC(=O)[C@H](Cc2ccc(O)cc2)NC(=O)[C@H]2CC[C@H](CNC(=O)CN3CCN(CC(=O)O)CCN(CC(=O)O)CCN(CC(=O)O)CC3)CC2)CSCc2cccc(c2)CSC[C@@H](C(N)=O)NC(=O)[C@H](CO)NC(=O)[C@H](Cc2c[nH]c3ccccc23)NC(=O)[C@H]([C@@H](C)O)NC1=O [3BP-3868] ({DOTA-Trx}-YCE[dP]DWLTWSC-NH2; linker 2-11 via mXylylene) | B (t1/2 between 5.1 and 15.0 minutes) | < 10 |  | < 10 |  |
| CC(=O)N[C@@H](CO)C(=O)N[C@@H](Cc1ccc(O)cc1)C(=O)N[C@H]1CSCc2cccc(c2)CSC[C@@H](C(N)=O)NC(=O)[C@H](CCC(=O)NCCCNC(=O)CN2CCN(CC(=O)O)CCN(CC(=O)O)CCN(CC(=O)O)CC2)NC(=O)[C@H](Cc2c[nH]c3ccccc23)NC(=O)[C@H]([C@@H](C)O)NC(=O)[C@H](CC(C)C)NC(=O)[C@H](Cc2c[nH]c3ccccc23)NC(=O)[C@H](CC(=O)O)NC(=O)[C@H]2CCCN2C(=O)[C@H](CCC(=O)O)NC1=O [3BP-3873] (Ac-SYCE[dP]DWLTWE(NH(CH2)3NHDOTA)C-NH2; linker 3-12 via mXylylene) | B (t1/2 between 5.1 and 15.0 minutes) | < 10 |  | < 10 |  |
| CC(C)C[C@@H]1NC(=O)[C@H](Cc2ccc(NC(=O)c3csc(S(N)(=O)=O)c3)cc2)NC(=O)[C@H](CC(=O)O)NC(=O)[C@H]2CCCN2C(=O)[C@H](CCC(=O)O)NC(=O)[C@@H](NC(=O)[C@H](Cc2ccc(O)cc2)NC(=O)[C@@H](NC(=O)CN2CCC(NC(=O)CN3CCN(CC(=O)O)CCN(CC(=O)O)CCN(CC(=O)O)CC3)CC2)C(C)C)CSCc2cccc(c2)CSC[C@@H](C(N)=O)NC(=O)[C@H](CO)NC(=O)[C@H](Cc2c[nH]c3ccccc23)NC(=O)[C@H]([C@@H](C)O)NC1=O [3BP-4401] ({DOTA}-[X2]VYCE[dP]D[Phe(4-NH2)](X17)LTWSC-NH2; linker 4-13 via mXylylene) | A (t1/2>15.0 minutes) | < 10 | < 10 |  |  |
| CC(C)C[C@@H]1NC(=O)[C@H](Cc2c[nH]c3ccccc23)NC(=O)[C@H](CC(=O)O)NC(=O)[C@@H](CCC(=O)NC[C@H](O)[C@@H](O)[C@H](O)[C@H](O)CO)NC(=O)[C@H](CCC(=O)O)NC(=O)[C@@H](NC(=O)[C@H](Cc2ccc(O)cc2)NC(=O)[C@@H](NC(=O)CN2CCC(NC(=O)CN3CCN(CC(=O)O)CCN(CC(=O)O)CCN(CC(=O)O)CC3)CC2)C(C)C)CSCc2cccc(c2)CSC[C@@H](C(N)=O)NC(=O)[C@H](CO)NC(=O)[C@H](Cc2c[nH]c3ccccc23)NC(=O)[C@H]([C@@H](C)O)NC1=O [3BP-4119] ({DOTA}-[X2]VYCE[dE](NH(1-deoxy-D-glucityl))DWLTWSC-NH2; linker 4-13 via mXylylene) |  | < 10 |  |  | < 10 |

Next, values leading:

| t1/2 category (activity) [1] | Kd [1] [nM] | IC50 [2, 3] [nM] | IC50 [2, 4] [nM] | IC50 [2, 5] [nM] | SMILES |
| --- | --- | --- | --- | --- | --- |
| A (t1/2>15.0 minutes) | < 10 | 10 to 79.4 |  |  | CC(C)C[C@@H]1NC(=O)[C@H](Cc2c[nH]c3ccccc23)NC(=O)[C@H](CCC(=O)Nc2cccc(S(N)(=O)=O)c2)NC(=O)[C@H]2CCCN2C(=O)[C@H](CCC(=O)O)NC(=O)[C@@H](NC(=O)[C@H](Cc2ccc(O)cc2)NC(=O)[C@@H](NC(=O)CN2CCC(NC(=O)CN3CCN(CC(=O)O)CCN(CC(=O)O)CCN(CC(=O)O)CC3)CC2)C(C)C)CSCc2cccc(c2)CSC[C@@H](C(N)=O)NC(=O)[C@H](CO)NC(=O)[C@H](Cc2c[nH]c3ccccc23)NC(=O)[C@H]([C@@H](C)O)NC1=O [3BP-4441] ({DOTA}-[X2]VYCE[dP]E(X41)WLTWSC-NH2; linker 4-13 via mXylylene) |
| A (t1/2>15.0 minutes) | < 10 | < 10 |  |  | CC(C)C[C@@H]1NC(=O)[C@H](Cc2ccc(NC(=O)c3ccc(S(N)(=O)=O)s3)cc2)NC(=O)[C@H](CC(=O)O)NC(=O)[C@H]2CCCN2C(=O)[C@H](CCC(=O)O)NC(=O)[C@@H](NC(=O)[C@H](Cc2ccc(O)cc2)NC(=O)[C@@H](NC(=O)CN2CCC(NC(=O)CN3CCN(CC(=O)O)CCN(CC(=O)O)CCN(CC(=O)O)CC3)CC2)C(C)C)CSCc2cccc(c2)CSC[C@@H](C(N)=O)NC(=O)[C@H](CO)NC(=O)[C@H](Cc2c[nH]c3ccccc23)NC(=O)[C@H]([C@@H](C)O)NC1=O [3BP-4402] ({DOTA}-[X2]VYCE[dP]D[Phe(4-NH2)](X27)LTWSC-NH2; linker 4-13 via mXylylene) |
| B (t1/2 between 5.1 and 15.0 minutes) | < 10 | < 10 |  |  | CC(C)C[C@@H]1NC(=O)[C@H](Cc2ccc(NC(=O)c3ccc(S(N)(=O)=O)s3)cc2)NC(=O)[C@H](CC(=O)O)NC(=O)[C@H]2CCCN2C(=O)[C@H](CCC(=O)O)NC(=O)[C@@H](NC(=O)[C@H](Cc2ccc(O)cc2)NC(=O)CN2CCN(C(=O)CN3CCN(CC(=O)O)CCN(CC(=O)O)CCN(CC(=O)O)CC3)CC2)CSCc2cccc(c2)CSC[C@@H](C(N)=O)NC(=O)[C@H](CO)NC(=O)[C@H](Cc2c[nH]c3ccccc23)NC(=O)[C@H]([C@@H](C)O)NC1=O [3BP-4457] ({DOTA}-[X1]YCE[dP]D[Phe(4-NH2)](X27)LTWSC-NH2; linker 3-12 via mXylylene) |
| B (t1/2 between 5.1 and 15.0 minutes) | < 10 | < 10 |  |  | CC(C)C[C@@H]1NC(=O)[C@H](Cc2cccc(C(F)(F)F)c2)NC(=O)[C@H](CC(=O)O)NC(=O)[C@H]2CCCN2C(=O)[C@H](CCC(=O)O)NC(=O)[C@@H]2CSCc3cccc(c3)CSC[C@@H](C(N)=O)NC(=O)[C@H](CNC(=O)C[C@H](NC(=O)[C@@H](NC(=O)CN3CCC(NC(=O)CN4CCN(CC(=O)O)CCN(CC(=O)O)CCN(CC(=O)O)CC4)CC3)C(C)C)C(=O)N2)NC(=O)[C@H](Cc2c[nH]c3ccccc23)NC(=O)[C@H]([C@@H](C)O)NC1=O [3BP-4440] ({DOTA}-[X2]VDCE[dP]D[Phe(3-CF3)]LTW[Dap]C-NH2; lactam 3-12; linker 4-13 via mXylylene) |
| C (t1/2 between 2.1 and 5.0 minutes) | < 10 | 10 to 79.4 |  |  | CC(C)C[C@@H]1NC(=O)[C@H](Cc2c[nH]c3ccccc23)NC(=O)[C@H](CC(=O)O)NC(=O)[C@H]2CCCN2C(=O)[C@H](CCC(=O)O)NC(=O)[C@@H](NC(=O)[C@H](Cc2ccc(O)cc2)NC(=O)CN2CCN(C(=O)CN3CCN(CC(=O)O)CCN(CC(=O)O)CCN(CC(=O)O)CC3)CC2)CSCc2cccc(c2)CSC[C@@H](C(N)=O)NC(=O)[C@H](CO)NC(=O)[C@H](Cc2c[nH]c3ccccc23)NC(=O)[C@H]([C@@H](C)O)NC1=O [3BP-4446] ({DOTA}-[X1]YCE[dP]DWLTWSC-NH2; linker 3-12 via mXylylene) |
| C (t1/2 between 2.1 and 5.0 minutes) | 10 to 79.4 |  |  | 10 to 79.4 | CC(C)C[C@@H]1NC(=O)[C@H](Cc2ccc(NC(=O)c3cc(S(N)(=O)=O)co3)cc2)NC(=O)[C@H](CC(=O)O)NC(=O)[C@H]2CCCN2C(=O)[C@H](CCC(=O)O)NC(=O)[C@@H](NC(=O)[C@H](CCC(N)=O)NC(=O)CN2CCN(C(=O)CN3CCN(CC(=O)O)CCN(CC(=O)O)CCN(CC(=O)O)CC3)CC2)CSCc2cccc(c2)CSC[C@@H](C(N)=O)NC(=O)[C@H](CO)NC(=O)[C@H](Cc2c[nH]c3ccccc23)NC(=O)[C@H]([C@@H](C)O)NC1=O [3BP-4813] ({DOTA}-[X1]QCE[dP]D[Phe(4-NH2)](X31)LTWSC-NH2; linker 3-12 via mXylylene) |
| A (t1/2>15.0 minutes) | < 10 | < 10 |  |  | CC(C)C[C@@H]1NC(=O)[C@H](Cc2cccc(NC(=O)CCS(N)(=O)=O)c2)NC(=O)[C@H](CC(=O)O)NC(=O)[C@H]2CCCN2C(=O)[C@H](CCC(=O)O)NC(=O)[C@@H](NC(=O)[C@H](Cc2ccc(O)cc2)NC(=O)[C@@H](NC(=O)CN2CCC(NC(=O)CN3CCN(CC(=O)O)CCN(CC(=O)O)CCN(CC(=O)O)CC3)CC2)C(C)C)CSCc2cccc(c2)CSC[C@@H](C(N)=O)NC(=O)[C@H](CO)NC(=O)[C@H](Cc2c[nH]c3ccccc23)NC(=O)[C@H]([C@@H](C)O)NC1=O [3BP-4407] ({DOTA}-[X2]VYCE[dP]D[X21]LTWSC-NH2; linker 4-13 via mXylylene) |

— patent publication US20250339569A1, “CARBONIC ANHYDRASE IX LIGANDS” (priority 2021, published 2025)
